From patent US5719121A, “Use of balhimycin as production promoter in animals, and production promoter compositions” (Hoechst Aktiengesellschaft, priority 1995, dated 1998)

Tested on: broilers
Assay: Feeding experiment with balhimycin in broilers (floor management, 35 days): growth and feed utilization
Type: in vivo
Conditions: for Feed Intake, compared to the control value of 100% / Feed Utilization, compared to the control value of 100% / Live weight End, compared to the control value of 100% / Live weight Gain, compared to the control value of 100%: control = 100; for Feed Intake / Feed Utilization kg of FI/kg of LW / Live weight End: group mean
Method: A feeding experiment with balhimycin was carried out in floor management using […] broilers (80 males and 80 females) which were divided into 5 groups:
1st group: untreated control
2nd group: balhimycin, 15 mg/kg of feed
3rd group: balhimycin, 30 mg/kg of feed
4th group: balhimycin, 45 mg/kg of feed
5th group: balhimycin, 60 mg/kg of feed
The feed had the following composition (Table 1):
The animals were kept in boxes of 40 animals each and were given the feed mixtures for 35 days in accordance with their group assignment.
In Table 2, the first number in each column directed to weight change, feed intake, and feed utilization, indicates the number average for the broilers in each group. The second number indicates the standard deviation of the data. The third number indicates the percent difference of each group as compared to the control value of 100%.
Different letters (a, b, ab, c) in the gain column denote significant differences between the groups (P<0.05). Values having the same letter or letters indicate that there is no significant difference between the groups.

CNC(CC(C)C)C(=O)NC1C(=O)NC(CC(N)=O)C(=O)NC2C(=O)NC3C(=O)NC(C(=O)NC(C(=O)O)c4cc(O)cc(O)c4-c4cc3ccc4O)C(OC3C[C@](C)(N)C(=O)C(C)O3)c3ccc(c(Cl)c3)Oc3cc2cc(c3OC2O[C@H](CO)C(O)[C@H](O)C2O)Oc2ccc(cc2Cl)C1O (stereo partly shown) [Balhimycin]
Feed Intake, compared to the control value of 100% (balhimycin 15 mg/kg of feed): 99.9% | Feed Utilization, compared to the control value of 100% (balhimycin 15 mg/kg of feed): 92.0% | Live weight End, compared to the control value of 100% (balhimycin 15 mg/kg of feed): 108.1% | Live weight Gain, compared to the control value of 100% (balhimycin 15 mg/kg of feed): 108.4% | Feed Intake (balhimycin 15 mg/kg of feed): 72.5 g/day | Feed Utilization kg of FI/kg of LW (balhimycin 15 mg/kg of feed): 1.62 kg of FI/kg of LW | Live weight End (balhimycin 15 mg/kg of feed): 1602.0 g | Feed Intake, compared to the control value of 100% (balhimycin 30 mg/kg of feed): 100.6% | Feed Utilization, compared to the control value of 100% (balhimycin 30 mg/kg of feed): 93.8% | Live weight End, compared to the control value of 100% (balhimycin 30 mg/kg of feed): 110.7% | Live weight Gain, compared to the control value of 100% (balhimycin 30 mg/kg of feed): 110.8% | Feed Intake (balhimycin 30 mg/kg of feed): 75.3 g/day | Feed Utilization kg of FI/kg of LW (balhimycin 30 mg/kg of feed): 1.65 kg of FI/kg of LW | Live weight End (balhimycin 30 mg/kg of feed): 1640.0 g | Feed Intake, compared to the control value of 100% (balhimycin 45 mg/kg of feed): 100.6% | Feed Utilization, compared to the control value of 100% (balhimycin 45 mg/kg of feed): 92.0% | Live weight End, compared to the control value of 100% (balhimycin 45 mg/kg of feed): 109.1% | Live weight Gain, compared to the control value of 100% (balhimycin 45 mg/kg of feed): 109.3% | Feed Intake (balhimycin 45 mg/kg of feed): 73.0 g/day | Feed Utilization kg of FI/kg of LW (balhimycin 45 mg/kg of feed): 1.62 kg of FI/kg of LW | Live weight End (balhimycin 45 mg/kg of feed): 1617.0 g | Feed Intake, compared to the control value of 100% (balhimycin 60 mg/kg of feed): 100.7% | Feed Utilization, compared to the control value of 100% (balhimycin 60 mg/kg of feed): 93.2% | Live weight End, compared to the control value of 100% (balhimycin 60 mg/kg of feed): 108.0% | Live weight Gain, compared to the control value of 100% (balhimycin 60 mg/kg of feed): 108.1% | Feed Intake (balhimycin 60 mg/kg of feed): 73.1 g/day | Feed Utilization kg of FI/kg of LW (balhimycin 60 mg/kg of feed): 1.64 kg of FI/kg of LW | Live weight End (balhimycin 60 mg/kg of feed): 1600.0 g
